In ChEMBL document CHEMBL6083219, “Rationally designed febuxostat-based hydroxamic acid and its pH-Responsive nanoformulation elicits anti-tumor activity” (Eur J Med Chem, 2024):
The source made the active and inactive calls.

Experiments:
[1] = target: Xanthine dehydrogenase/oxidase (Bos taurus, UniProt P80457); experiment: Inhibition of bovine milk xanthine oxidase
NCI-H1975 = assay type: functional, cell-based; conditions: Homo sapiens, NCI-H1975, 48 h
HL-60 [2] = assay type: functional, cell-based; conditions: Homo sapiens, HL-60, 48 h
HL-60 [3] = experiment: Downregulation of HDAC2 expression level in human HL-60 cells at 0.5 to 2 uM by Western blotting analysis; assay type: functional, cell-based; conditions: dose 0.5-2 µM
HL-60 [4] = experiment: Downregulation of HDAC3 expression level in human HL-60 cells at 0.5 to 2 uM by Western blotting analysis; assay type: functional, cell-based; conditions: dose 0.5-2 µM
HL-60 [5] = experiment: Downregulation of HDAC6 expression level in human HL-60 cells at 0.5 to 2 uM by Western blotting analysis; assay type: functional, cell-based; conditions: dose 0.5-2 µM
MDA-MB-231 [6] = experiment: Downregulation of HDAC1 expression level in human MDA-MB-231 cells at 0.5 to 2 uM by Western blotting analysis; assay type: functional, cell-based; conditions: dose 0.5-2 µM
MDA-MB-231 [7] = experiment: Downregulation of HDAC2 expression level in human MDA-MB-231 cells at 0.5 to 2 uM by Western blotting analysis; assay type: functional, cell-based; conditions: dose 0.5-2 µM
MDA-MB-231 [8] = experiment: Downregulation of HDAC3 expression level in human MDA-MB-231 cells at 0.5 to 2 uM by Western blotting analysis; assay type: functional, cell-based; conditions: dose 0.5-2 µM
HL-60 [9] = experiment: Upregulation of acetylated histone H3 level in human HL-60 cells by Western blotting analysis; assay type: functional, cell-based; conditions: dose 0.5-2 µM
HL-60 [10] = experiment: Upregulation of acetylated alpha tubulin level in human HL-60 cells by Western blotting analysis; assay type: functional, cell-based; conditions: dose 0.5-2 µM
HL-60 [11] = experiment: Downregulation of mTOR expression level in human HL-60 cells at 0.5 to 2 uM by Western blotting analysis; assay type: functional, cell-based; conditions: dose 0.5-2 µM
Mitochondrial membrane = experiment: Induction of mitochondrial membrane potential loss in human HL-60 cells at 0.5 to 2 uM by rhodamine 123 staining based flow cytometry analysis; conditions: dose 0.5-2 µM
HL-60 [12] = experiment: Induction of autophagy in human HL-60 cells at 0.5 to 2 uM by acridine orange staining based microscopic assay; assay type: functional, cell-based; conditions: dose 0.5-2 µM
HL-60 [13] = experiment: Induction of autophagy in human HL-60 cells assessed as upregulation of LC3-II expression level at 0.5 to 2 uM by Western blotting assay; assay type: functional, cell-based; conditions: dose 0.5-2 µM
MDA-MB-231 [14] = experiment: Induction of apoptosis in human MDA-MB-231 cells assessed as G2/M phase arrest at 0.5 to 1 uM incubated for 48 hrs; assay type: functional, cell-based; conditions: dose 0.5-1 µM
MDA-MB-231 [15] = experiment: Induction of apoptosis in human MDA-MB-231 cells assessed as cell death at sub-G1 phase at 0.5 to 1 uM incubated for 48 hrs; assay type: functional, cell-based; conditions: dose 0.5-1 µM
HL-60 [16] = experiment: Antitumor activity against human HL-60 cells xenografted in ip dosed BALB/c nude mouse model assessed as reduction in tumor volume and measured twice a week for 22 days; assay type: functional, organism-based; conditions: dose 50-100 mg/kg, time 22.0 day
HL-60 [17] = experiment: Antitumor activity against human HL-60 cells xenografted in BALB/c nude mouse model assessed as reduction in tumor volume at 50 to 100 mg/kg, ip measured twice a week for 22 days; assay type: functional, organism-based; conditions: dose 50-100 mg/kg, time 22.0 day
Rattus norvegicus [18] = experiment: Anti-hyperuricemic activity against potassium oxonate-induced hyperuricemia Wistar rat model assessed as decrease in serum uric acid level at 10 mg/kg measured after 14 days; assay type: functional, organism-based; conditions: time 14.0 day
Rattus norvegicus [19] = experiment: Anti-hyperuricemic activity against potassium oxonate-induced hyperuricemia Wistar rat model assessed as decrease in blood urea level at 2.5 mg/kg measured after 14 days; assay type: functional, organism-based; conditions: time 14.0 day
Rattus norvegicus [20] = experiment: Anti-hyperuricemic activity against potassium oxonate-induced hyperuricemia Wistar rat model assessed as effect on complete blood count at 2.5 mg/kg measured after 14 days; assay type: functional, organism-based; conditions: time 14.0 day
Rattus norvegicus [21] = experiment: Anti-hyperuricemic activity against potassium oxonate-induced hyperuricemia Wistar rat model assessed as decrease in number of basophils at 5 mg/kg measured after 14 days; assay type: functional, organism-based; conditions: time 14.0 day
Rattus norvegicus [22] = experiment: Anti-hyperuricemic activity against potassium oxonate-induced hyperuricemia Wistar rat model assessed as increase in neutrophils at 5 mg/kg measured after 14 days; assay type: functional, organism-based; conditions: time 14.0 day
Rattus norvegicus [23] = experiment: Anti-hyperuricemic activity against potassium oxonate-induced hyperuricemia Wistar rat model assessed as increase in lymphocytes at 5 mg/kg measured after 14 days; assay type: functional, organism-based; conditions: time 14.0 day
Rattus norvegicus [24] = experiment: Anti-hyperuricemic activity against potassium oxonate-induced hyperuricemia Wistar rat model assessed as increase in monocytes at 5 mg/kg measured after 14 days; assay type: functional, organism-based; conditions: time 14.0 day
Rattus norvegicus [25] = experiment: Anti-hyperuricemic activity against potassium oxonate-induced hyperuricemia Wistar rat model assessed as increase in hemoglobin levels at 5 mg/kg measured after 14 days; assay type: functional, organism-based; conditions: time 14.0 day
Rattus norvegicus [26] = experiment: Anti-hyperuricemic activity against potassium oxonate-induced hyperuricemia Wistar rat model assessed as increase in platelet counts at 5 mg/kg measured after 14 days; assay type: functional, organism-based; conditions: time 14.0 day
Rattus norvegicus [27] = experiment: Anti-hyperuricemic activity against potassium oxonate-induced hyperuricemia Wistar rat model assessed as improvement in renal condition at 2.5 mg/kg measured after 14 days by H and E staining based assay; assay type: functional, organism-based; conditions: time 14.0 day
Rattus norvegicus [28] = experiment: Anti-hyperuricemic activity against potassium oxonate-induced hyperuricemia Wistar rat model assessed as improvement in renal condition at 5 mg/kg by measuring decrease in degeneration of tubular cells measured after 14 days by H and E staining based assay; assay type: functional, organism-based; conditions: time 14.0 day
Rattus norvegicus [29] = experiment: Anti-hyperuricemic activity against potassium oxonate-induced hyperuricemia Wistar rat model assessed as improvement in renal condition at 5 mg/kg by measuring decrease in enlargement of tubular cells measured after 14 days by H and E staining based assay; assay type: functional, organism-based; conditions: time 14.0 day
Rattus norvegicus [30] = experiment: Anti-hyperuricemic activity against potassium oxonate-induced hyperuricemia Wistar rat model assessed as improvement in renal condition at 5 mg/kg by measuring decrease in enlargement of glomeruli measured after 14 days by H and E staining based assay; assay type: functional, organism-based; conditions: time 14.0 day
Rattus norvegicus [31] = experiment: Anti-hyperuricemic activity against potassium oxonate-induced hyperuricemia Wistar rat model assessed as improvement in renal condition by measuring decrease in tubular cell necrosis at 10 mg/kg measured after 14 days by H and E staining based assay; assay type: functional, organism-based; conditions: time 14.0 day
Rattus norvegicus [32] = experiment: Anti-hyperuricemic activity against potassium oxonate-induced hyperuricemia Wistar rat model assessed as improvement in renal condition by measuring decrease in tubular cell swelling at 10 mg/kg measured after 14 days by H and E staining based assay; assay type: functional, organism-based; conditions: time 14.0 day
Rattus norvegicus [33] = experiment: Anti-hyperuricemic activity against potassium oxonate-induced hyperuricemia Wistar rat model assessed as improvement in renal condition by measuring normal glomeruli appearance at 10 mg/kg measured after 14 days by H and E staining based assay; assay type: functional, organism-based; conditions: time 14.0 day
Rattus norvegicus [34] = experiment: Anti-hyperuricemic activity against potassium oxonate-induced hyperuricemia Wistar rat model assessed as improvement in renal condition by measuring normal glomeruli size at 10 mg/kg measured after 14 days by H and E staining based assay; assay type: functional, organism-based; conditions: time 14.0 day
Rattus norvegicus [35] = experiment: Anti-hyperuricemic activity against potassium oxonate-induced hyperuricemia Wistar rat model assessed as reduction in DCT expansion at 10 mg/kg measured after 14 days by H and E staining based assay; assay type: functional, organism-based; conditions: time 14.0 day
HL-60 [36] = experiment: Cytotoxicity against human HL-60 cells incubated for 1 day by MTT assay; assay type: functional, cell-based; conditions: HL-60, 24 h
HH = experiment: Cytotoxicity against human HH cells incubated for 1 day by MTT assay; assay type: functional, cell-based; conditions: 24 h
K562 = experiment: Cytotoxicity against human K562 cells incubated for 1 day by MTT assay; assay type: functional, cell-based; conditions: K562, 24 h
MOLT-4 = experiment: Cytotoxicity against human MOLT-4 cells incubated for 1 day by MTT assay; assay type: functional, cell-based; conditions: MOLT-4, 24 h
[37] = Cytotoxicity against mouse L929 cells incubated for 1 day by MTT assay; assay type: toxicity, cell-based
MDA-MB-231 [38] = experiment: cells; conditions: Homo sapiens, MDA-MB-231, 48 h
Description: Cytotoxicity against human MDA-MB-231 cells incubated for 48 hrs by MTT assay

Sequence of Xanthine dehydrogenase/oxidase (P80457 whole entry): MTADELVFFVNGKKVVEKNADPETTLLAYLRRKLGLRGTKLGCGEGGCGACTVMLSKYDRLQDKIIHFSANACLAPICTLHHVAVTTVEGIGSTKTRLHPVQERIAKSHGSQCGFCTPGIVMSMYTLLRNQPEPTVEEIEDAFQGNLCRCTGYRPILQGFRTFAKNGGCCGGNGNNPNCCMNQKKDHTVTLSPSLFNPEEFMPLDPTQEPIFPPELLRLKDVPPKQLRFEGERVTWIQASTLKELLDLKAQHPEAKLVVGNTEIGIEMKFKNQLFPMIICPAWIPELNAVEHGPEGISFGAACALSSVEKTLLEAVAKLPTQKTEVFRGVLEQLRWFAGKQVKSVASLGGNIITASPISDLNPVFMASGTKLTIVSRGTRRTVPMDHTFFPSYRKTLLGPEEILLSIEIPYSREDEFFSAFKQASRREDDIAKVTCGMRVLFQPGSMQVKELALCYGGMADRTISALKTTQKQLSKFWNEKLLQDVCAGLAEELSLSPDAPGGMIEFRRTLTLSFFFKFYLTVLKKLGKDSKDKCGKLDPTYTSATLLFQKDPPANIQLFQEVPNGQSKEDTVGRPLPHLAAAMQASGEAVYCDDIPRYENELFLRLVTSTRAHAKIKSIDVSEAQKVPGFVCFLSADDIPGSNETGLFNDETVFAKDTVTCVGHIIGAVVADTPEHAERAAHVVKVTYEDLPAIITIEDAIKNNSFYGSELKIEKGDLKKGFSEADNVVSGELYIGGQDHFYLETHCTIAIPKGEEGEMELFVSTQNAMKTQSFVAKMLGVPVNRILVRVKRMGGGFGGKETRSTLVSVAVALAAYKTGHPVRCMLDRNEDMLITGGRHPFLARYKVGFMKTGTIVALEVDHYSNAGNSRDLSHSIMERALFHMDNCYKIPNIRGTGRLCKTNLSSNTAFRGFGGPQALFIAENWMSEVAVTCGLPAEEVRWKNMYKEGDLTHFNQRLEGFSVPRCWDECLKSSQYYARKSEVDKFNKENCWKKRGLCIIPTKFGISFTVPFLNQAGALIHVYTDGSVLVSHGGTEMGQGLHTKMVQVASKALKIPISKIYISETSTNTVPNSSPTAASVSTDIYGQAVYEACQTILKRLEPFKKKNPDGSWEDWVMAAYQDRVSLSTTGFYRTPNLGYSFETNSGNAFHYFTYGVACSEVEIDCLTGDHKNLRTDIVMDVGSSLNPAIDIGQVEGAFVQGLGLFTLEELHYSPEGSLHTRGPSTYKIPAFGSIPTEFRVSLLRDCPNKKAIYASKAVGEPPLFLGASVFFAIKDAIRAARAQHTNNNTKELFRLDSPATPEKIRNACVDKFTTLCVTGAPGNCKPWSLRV

Cc1nc(-c2ccc(OCC(C)C)c(C#N)c2)sc1C(=O)NCCCCCCC(=O)NO
1190 nM: IC50 (MOLT-4)
1090 nM: IC50 (HH)
active: Activity (MDA-MB-231 [6]) | Activity (MDA-MB-231 [7]) | Activity (MDA-MB-231 [8]) | Activity (HL-60 [9]) Dose-dependent-effect | Activity (HL-60 [10]) Dose-dependent-effect | Activity (HL-60 [11]) | Activity (Mitochondrial membrane) | Activity (HL-60 [12]) | Activity (HL-60 [13]) | Activity (MDA-MB-231 [14]) | Activity (MDA-MB-231 [15]) | Activity (HL-60 [16]) Dose-dependent-effect | Activity (Rattus norvegicus [18]) | Activity (Rattus norvegicus [21]) | Activity (Rattus norvegicus [22]) | Activity (Rattus norvegicus [23]) | Activity (Rattus norvegicus [24]) | Activity (Rattus norvegicus [25]) | Activity (Rattus norvegicus [26]) | Activity (Rattus norvegicus [28]) | Activity (Rattus norvegicus [29]) | Activity (Rattus norvegicus [30]) | Activity (Rattus norvegicus [31]) | Activity (Rattus norvegicus [32]) | Activity (Rattus norvegicus [33]) | Activity (Rattus norvegicus [34]) | Activity (Rattus norvegicus [35])
inactive: Activity (Rattus norvegicus [19]) | Activity (Rattus norvegicus [20]) | Activity (Rattus norvegicus [27])
5440 nM: IC50 (NCI-H1975)
1210 nM: IC50 (K562)
706 nM: IC50 (HL-60 [2]) | IC50 (HL-60 [36])
6.6 nM: IC50 [1]
Active; Activity More Potent Than Saha: Activity (HL-60 [3]) | Activity (HL-60 [4]) | Activity (HL-60 [5]) | Activity (HL-60 [17])
2230 nM: IC50 at 1 day [37]
2940 nM: IC50 (MDA-MB-231 [38])
